Laboratory results as given in patent publication US11612581B2, “Cannabis and derivatives thereof for the treatment of pain and inflammation related with dental pulp and bone regeneration related to dental jaw bone defects” (CANNIBITE BVBA, priority 2017, dated 2023).

Key:
vestibular canal pulp = assay: Extracted dental pulp of hemisected wisdom tooth treated with CBD solution (samples 3a, 3b); assay type: cell-based, human; conditions: sample 3b, 0.1 ml 25% solution, compared to 3a (Formalin)
Protocol: A patient with chronic irreversible pulpitis element 28 wisdom tooth.
The element was hemisected and dental pulp extracted from tooth.
Sample 3a: Palatinal pulp was placed in Formalin.
Sample 3b: 0.1 ml CDB (25%) solution was applied to the vestibular canal pulp.

live bacterial cells = assay: Anti-bacterial activity on inflamed dental pulp and dental plaque samples, Dojindo staining, Cytation 5 imaging; assay type: cell-based; conditions: incubated for 5 min
Protocol: CDB Solutions: Two CBD solutions were prepared at concentrations of 12.5% and 25% by dissolving CDB (as powder, 98% purity) in methanol to obtain the desired concentration.
Samples of inflamed dental pulp and dental plaque were collected from various subjects and incubated at 37° C. for 24 hours
The samples where then treated with CBD solutions (12.5% and 25%) and incubated for 5 min. The samples were stained with Dojindo Rapid staining kit BS02 and evaluated under a Cytation 5 cell imaging microscope.

[1] = tested on: pulp extract from the teeth; assay: Pulp extract treated in-vitro and sent to pathology lab (samples 1a, 1b); assay type: cell-based, human; conditions: 0.1 ml of Clorhexidine Gluconate 2% (sample 1a) or CBD 25% (sample 1b)
Protocol: The pulp extract from the teeth was treated in-vitro and was sent to pathology lab. Pulp was extracted and separated to two samples:
Sample 1a was treated with 0.1 ml Clorhexidine Gluconate 2%.

[2] = tested on: chronic irreversible pulpitis combined with periapical lesion; assay: Root canal treatment with CBD added to dressing and sealer, bone regeneration by X-ray (Patient 1); assay type: in vivo, human
Protocol: Histology slides prepared after pulpectomy of a second mandibular molar diagnosed with chronic irreversible pulpitis combined with periapical lesion (FIG. 6).
The treatment was performed with regular methods, in 2 steps 1 week rest. In the temporary dressing of the root canal medication Hydroxide Calcium was introduced 0.1 ml of CBD (25%) as well in the permanent sealer EWT Ken pulp sealer was introduced 0.5 ml of CBD (25%), pulp canal system sealed with sealer and gutta-percha.
With standard treatment for periapical lesion, regeneration is usually noticed 6 months after treatment.

[3] = tested on: bacteria's from the nerve fiber; assay: Bacteria on nerve fiber of pulp removed by pulpectomy, phase contrast microscopy without staining; assay type: cell-based
Protocol: A patent diagnosed with acute pulpitis with severe signs of pain on cold irritants, percussion pain with x-ray deep caries radiolucent areas adjacent to the coronal pulp. Hyperemia is evident in the dental canal system when opening of the coronal part of pulp chamber.
Pulpectomy (Removal of the entire pulp structure of a tooth, including the pulp tissue in the roots) was performed. The pulp was analyzed by phase contrast microscopy without staining.
Following Pulpectomy a solution of 0.1 ml CBD (25%) was applied for 1 min.
The same application was made with a Clorhexidine gluconate 2% solution used in endodontics to rinse canal system of the roots. A reduction of less than 20% in bacteria's was observed.

mid-femoral fractures = conditions: rats with mid-femoral fractures, after eight weeks; cited from earlier work
[4] = relative to THC; cited from earlier work

Row | SMILES | inflammation and infection of pulp sample (vestibular canal pulp) | reduction in live bacterial cells as compared to an untreated sample (live bacterial cells; 12.5% CBD solution) [%] | reduction in live bacterial cells as compared to an untreated sample (live bacterial cells; 25% CBD solution) [%] | pathology lab findings of treated pulp sample [1] | bone regeneration on re-examination ([2]; 8 weeks after treatment) | bone regeneration in the apical region by X-ray ([2]; after 1 week, 0.1 ml CBD (25%) in Hydroxide Calcium dressing, 0.5 ml CBD (25%) in sealer) | reduction of bacteria's from the nerve fiber ([3]; 0.1 ml CBD (25%) applied for 1 min following pulpectomy) | bone fractures healing (mid-femoral fractures) | reduction in bacteria's ([3]; Clorhexidine gluconate 2% solution, same application) | less active than THC [4] [%]
1 | C=C(C)[C@@H]1CCC(C)=C[C@H]1c1c(O)cc(CCCCC)cc1O [CBD, cannabidiol] | no inflammation and no infection | > 75 | > 90 | connective tissue, bone and no bacteria | total regeneration | bone regeneration was identified | total reduction | enhances bone fractures healing |  | 
2 | N=C(NCCCCCCNC(=N)NC(=N)Nc1ccc(Cl)cc1)NC(=N)Nc1ccc(Cl)cc1.O=C(O)[C@H](O)[C@@H](O)[C@H](O)[C@H](O)CO.O=C(O)[C@H](O)[C@@H](O)[C@H](O)[C@H](O)CO [Clorhexidine gluconate] |  |  |  | debris, bacteria, and enamel cement |  |  |  |  | less than 20% | 
3 | CCCCCc1cc(O)c2c(c1)OC(C)(C)[C@@H]1CC=C(C)C[C@@H]21 [Δ8-THC] |  |  |  |  |  |  |  |  |  | ~20
